Laboratory results published in PubChem BioAssay (NCI).
Where “and” joins values, the source holds several entries; their conditions need not be identical. Identical values can stand only once.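 Cells were grown in 96-well plates and exposed to each compound for 48 hours at five concentrations; endpoints were interpolated linearly between bracketing concentrations, or set to the highest concentration if not reached. At the GI50, growth is halved. TGI marks complete inhibition of growth.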

Key:
Assay in all cases: inhibition of tumour cell growth, NCI panel, 48 h
[1] = tested on: ACHN renal
[2] = tested on: CAKI-1 renal
[3] = tested on: HCT-15 colon
[4] = tested on: NCI-H460 lung
[5] = tested on: SF-268 CNS
[6] = tested on: SK-OV-3 ovarian
[7] = tested on: SNB-19 CNS
[8] = tested on: SNB-75 CNS
[9] = tested on: EKVX NSCLC
[10] = tested on: RPMI-8226 leukemia

Row | SMILES | GI50 [1] [µM] | TGI [1] [µM] | GI50 [2] [µM] | TGI [2] [µM] | GI50 [3] [µM] | TGI [3] [µM] | GI50 [4] | TGI [4] | GI50 [5] | TGI [5] [µM] | GI50 [6] | TGI [6] [µM] | GI50 [7] | TGI [7] | GI50 [8] | TGI [8] [µM] | TGI [9] [µM] | TGI [10] [µM] | GI50 [9] [µM] | GI50 [10]
1 | COc1ccc(-c2nc(-c3nc4ccc(C(F)(F)F)cc4[nH]3)c3ccccn23)cc1 | 63.5 | > 100 | > 100 | > 100 | > 100 | > 100 | 9.73 µM | > 100 µM | > 100 µM | > 100 | > 100 µM | > 100 | > 100 µM | > 100 µM | 48.1 µM | > 100 |  |  |  | 
2 | Clc1cccc2c1OCC1C(c3ccccc3)=NN(c3ccccc3)C21 (centres undefined) |  | > 100 |  |  |  |  |  | > 100 µM |  | > 100 |  | > 100 |  | > 100 µM |  | > 100 | > 100 | > 100 |  | 
3 | Nc1nc(-c2cc(-c3cccc4ccccc34)nc(N)n2)cc(-c2cccc3ccccc23)n1 |  | > 100 |  | > 100 |  | > 100 |  | > 100 µM |  | > 100 |  | > 100 |  | > 100 µM |  |  | > 100 | > 100 |  | 
4 | Cc1cn2c(/C=N/N=C(N)N)c(-c3ccsc3)nc2s1 | 3.08 | 13.6 | 17.4 | 32.7 | 7.81 | 21.6 | 5.29 µM | > 100 µM | 14.6 µM | 44.3 | 10.6 µM | 25.6 | 7.31 µM | 23.7 µM |  |  | 27.4 | 16 | 13.8 | 3.69 µM
5 | CC/C(CC(=O)CCC(=O)Nc1ccc(C)c(C)c1)=N\NC(=O)C(N)=O |  | > 100 |  | > 100 |  | > 100 |  |  |  | > 100 |  | > 100 |  | > 100 µM |  | > 100 | > 100 | > 100 |  | 
6 | Cc1cc2c(cc1C)[n+](Cc1ccc3ccccc3n1)cn2Cc1ccc2ccccc2n1 | 3.06 | 10.6 |  |  | 3.04 | 11.4 | 0.63 µM | 2.21 µM | 1.27 µM | 3.02 | 1.69 µM | 4.13 | 0.91 µM | 2.36 µM | 1.43 µM | 3.87 | 11.1 | 1.62 | 2.29 | 0.301 µM
7 | C/C=C1\CCC2c3[nH]c4ccccc4c3CCN2C1 (centres undefined) |  | > 100 |  | > 100 |  |  |  | > 100 µM |  | > 100 |  | > 100 |  | > 100 µM |  | > 100 | > 100 |  |  | 
8 | O=C1N[C@H]2[C@H](O)[C@H](O)[C@@H](O)[C@H](O)[C@@H]2c2cc3c(c(O)c21)OCO3 |  |  | 0.682 |  | 0.462 |  | 0.234 µM and 0.084 µM | 0.652 µM and 0.448 µM | 0.269 µM and 1.36 µM |  | 0.3 µM and 0.33 µM |  | 0.172 µM and 0.125 µM | 0.939 µM and 0.197 µM | 0.257 µM and 1.14 µM |  |  |  |  | 0.224 µM and 0.842 µM
9 | CNCCCn1c2c(c3ccc(F)cc3c1=O)C(=O)c1cc(OC)cnc1-2 | 0.117 | 0.362 |  |  | 0.25 | 3.86 | 0.0492 µM | 0.261 µM | 0.379 µM | 3.55 | 0.228 µM | 0.674 | 0.216 µM | 1.78 µM | 0.252 µM | 3.28 | 1.96 | 0.912 | 0.301 | 0.203 µM
